As a reminder, the MIC is the least concentration at which growth counts as inhibited. A word on the IC50: it is the concentration that inhibits the measured activity by half.

Test [1] has as its system Acinetobacter baumannii/haemolyticus, multidrug-resistant clinical isolate (AB-3167). The test is described as follows: MIC determination, AB-3167. The conditions noted are these: Table 3, lower of duplicate values. It is filed as cell-based. Summed up: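 Broth dilution MIC per CLSI M7-A8, 2-fold drug series, overnight incubation, lowest concentration visibly inhibiting growth against drug-free control. Run in duplicate, lower value reported; duplicates differing >2-fold repeated; QC strains and reference compounds required in range.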

A further test concerns PA:UC12120. Nature of the test: MIC determination, PA:UC12120 (Table 3). It is filed as cell-based, Pseudomonas aeruginosa. The conditions noted are these: Pseudomonas aeruginosa, UC12120, Table 3, lower of duplicate values. In outline:
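CLSI broth dilution MIC with 2-fold concentration steps, overnight incubation; MIC is the lowest concentration visibly inhibiting growth versus drug-free control. Run in duplicate, lower value reported when within 2-fold; control organisms and reference compounds required within defined ranges.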

The target of test [2] is T1, Pseudomonas aeruginosa LpxC enzyme (Pseudomonas aeruginosa, UniProt P47205).
T1 construct: made in house; host or cells: E. coli
T1 sequence (P47205 1-303): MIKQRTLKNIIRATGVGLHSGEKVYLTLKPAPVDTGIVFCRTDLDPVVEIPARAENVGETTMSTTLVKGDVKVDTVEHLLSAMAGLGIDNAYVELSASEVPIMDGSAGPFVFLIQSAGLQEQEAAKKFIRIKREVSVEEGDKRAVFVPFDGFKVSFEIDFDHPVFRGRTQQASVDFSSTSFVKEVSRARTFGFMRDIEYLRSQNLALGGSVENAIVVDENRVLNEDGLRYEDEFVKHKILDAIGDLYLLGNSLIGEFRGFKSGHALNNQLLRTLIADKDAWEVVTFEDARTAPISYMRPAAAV
The test is described as follows: IC50 assay, LpxC enzyme from P. aeruginosa (PA LpxC enzyme IC50). It is filed as biochemical. The conditions noted are these: Table 3; LpxC enzyme 0.1 nM, 25° C., 1 hour; read-out: PA:IC50. Summed up: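 The LpxC reaction ran 1 hour and was stopped with HCl. Substrate-to-product conversion was measured by RapidFire mass spectrometry, and IC50 values were calculated from percent conversion relative to a no-enzyme control.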

Test [3] relates to Escherichia coli EC-1: VOGEL, mouse virulent. The test is described as follows: MIC determination, EC-1. It is filed as cell-based. The conditions noted are these: Escherichia coli, read-out: EC-1 (MIC), Table 3, lower of duplicate values. Summed up: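 MIC against mouse-virulent E. coli EC-1 (VOGEL) was determined by CLSI M7-A8 broth dilution with 2-fold drug increments and overnight incubation. The MIC is the lowest concentration with no visible growth versus drug-free control. Tests were run in duplicate and the lower value reported if within 2-fold, with QC organisms and reference drugs in each run.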

Molecules are shown by their SMILES. ≈ marks a conversion by molar mass, not a printed value.

As to `COCc1cccc(-c2cc(=O)n(CCC(C)(C(=O)NO)S(C)(=O)=O)cc2F)c1` (centres unmarked) [Example 93, 4-{5-fluoro-4-[3-(methoxymethyl)phenyl]-2-oxopyridin-1(2H)-yl}-N-hydroxy-2-methyl-2-(methylsulfonyl)butanamide], the MIC is more than 64 µg/mL in test [1], 8 µg/mL (≈ 18.8 µM) with PA:UC12120 and 32 µg/mL (≈ 75 µM) in test [3]. The IC50 in test [2] is 14.2 nM.
On to `CC(CCn1cc(F)c(-c2ccccc2C#N)cc1=O)(C(=O)NO)S(C)(=O)=O` (centres unmarked) [Example 94, 4-[4-(2-cyanophenyl)-5-fluoro-2-oxopyridin-1(2H)-yl]-N-hydroxy-2-methyl-2-(methylsulfonyl)butanamide], for which the MIC was 32 µg/mL (≈ 78.5 µM) in test [1], 32 µg/mL (≈ 78.5 µM) in the test with PA:UC12120 and 8 µg/mL (≈ 19.6 µM) in test [3]. In addition, the IC50 in test [2] was 32.3 nM.
Consider `CCOc1ccc(-c2cc(=O)n(CCC(C)(C(=O)NO)S(C)(=O)=O)cc2F)cc1F` (centres unmarked) [Example 95, 4-[4-(4-ethoxy-3-fluorophenyl)-5-fluoro-2-oxopyridin-1(2H)-yl]-N-hydroxy-2-methyl-2-(methylsulfonyl)butanamide], for which the MIC came out at 64 µg/mL (≈ 144 µM) in test [1], 2 µg/mL (≈ 4.5 µM) against PA:UC12120 and 1 µg/mL (≈ 2.25 µM) in test [3]. Besides, in test [2], the IC50 was found to be 1.2 nM.
The like results for `Cc1ccc2ccc(-c3cc(=O)n(CCC(C)(C(=O)NO)S(C)(=O)=O)cc3F)cc2n1` (centres unmarked) [Example 96, 4-[5-fluoro-4-(2-methylquinolin-7-yl)-2-oxopyridin-1(2H)-yl]-N-hydroxy-2-methyl-2-(methylsulfonyl)butanamide] were, in that order, more than 64 µg/mL, 32 µg/mL (≈ 71.5 µM), 16 µg/mL (≈ 35.8 µM) and 10.8 nM.
Regarding `CC(CCn1cc(F)c(-c2ccc(F)cc2F)cc1=O)(C(=O)NO)S(C)(=O)=O` (centres unmarked) [Example 97, 4-[4-(2,4-difluorophenyl)-5-fluoro-2-oxopyridin-1(2H)-yl]-N-hydroxy-2-methyl-2-(methylsulfonyl)butanamide], the MIC in test [1] was more than 64 µg/mL; in the test on PA:UC12120 it was 1 µg/mL (≈ 2.39 µM); in test [3] it was 4 µg/mL (≈ 9.56 µM). Besides, the IC50 in test [2] turned out to be 1.2 nM.
In the case of `COc1ccc(-c2cc(=O)n(CCC(C)(C(=O)NO)S(C)(=O)=O)cc2F)cc1OC` (centres unmarked) [Example 98, 4-[4-(3,4-dimethoxyphenyl)-5-fluoro-2-oxopyridin-1(2H)-yl]-N-hydroxy-2-methyl-2-(methylsulfonyl)butanamide], the MIC in test [1] is more than 64 µg/mL; against PA:UC12120, 32 µg/mL (≈ 72.3 µM); in test [3] it was 64 µg/mL (≈ 145 µM). Further, the IC50 in test [2] turned out to be 28.5 nM.
For the molecule `CCOc1ccc(-c2cc(=O)n(CCC(C)(C(=O)NO)S(C)(=O)=O)cc2F)cn1` (centres unmarked) [Example 99, 4-(6-ethoxy-5′-fluoro-2′-oxo-3,4′-bipyridin-1′(2′H)-yl)-N-hydroxy-2-methyl-2-(methylsulfonyl)butanamide], the MIC was more than 64 µg/mL in test [1], 2 µg/mL (≈ 4.68 µM) against PA:UC12120 and 2 µg/mL (≈ 4.68 µM) in test [3]. In addition, the half-inhibitory concentration (IC50) in test [2] is 2.5 nM.
Consider `COc1cccc(-c2cc(=O)n(CCC(C)(C(=O)NO)S(C)(=O)=O)cc2F)c1` (centres unmarked) [Example 100, 4-[5-fluoro-4-(3-methoxyphenyl)-2-oxopyridin-1(2H)-yl]-N-hydroxy-2-methyl-2-(methylsulfonyl)butanamide], for which the MIC in test [1] is more than 64 µg/mL; against PA:UC12120 it was 2 µg/mL (≈ 4.85 µM); in test [3] it was 4 µg/mL (≈ 9.7 µM). Also, the IC50 in test [2] worked out at 2.5 nM.
For `COc1cc(C#N)ccc1-c1cc(=O)n(CCC(C)(C(=O)NO)S(C)(=O)=O)cc1F` (centres unmarked) [Example 101, 4-[4-(4-cyano-2-methoxyphenyl)-5-fluoro-2-oxopyridin-1(2H)-yl]-N-hydroxy-2-methyl-2-(methylsulfonyl)butanamide], the MIC was more than 64 µg/mL in test [1], 8 µg/mL (≈ 18.3 µM) with PA:UC12120 and 64 µg/mL (≈ 146 µM) in test [3]. Moreover, the IC50 in test [2] was 5.2 nM.
In the case of `CC(CCn1cc(F)c(-c2ccc(Cl)c(C#N)c2)cc1=O)(C(=O)NO)S(C)(=O)=O` (centres unmarked) [Example 102, 4-[4-(4-chloro-3-cyanophenyl)-5-fluoro-2-oxopyridin-1(2H)-yl]-N-hydroxy-2-methyl-2-(methylsulfonyl)butanamide], the MIC is more than 64 µg/mL in test [1], 4 µg/mL (≈ 9.05 µM) against PA:UC12120 and 4 µg/mL (≈ 9.05 µM) in test [3]. Also, in test [2], the IC50 worked out at 2.1 nM.
For `CC(CCn1cc(F)c(-c2ccccc2F)cc1=O)(C(=O)NO)S(C)(=O)=O` (centres unmarked) [Example 103, 4-[5-fluoro-4-(2-fluorophenyl)-2-oxopyridin-1(2H)-yl]-N-hydroxy-2-methyl-2-(methylsulfonyl)butanamide], the MIC was more than 64 µg/mL in test [1], 0.5 µg/mL (≈ 1.25 µM) with PA:UC12120 and 4 µg/mL (≈ 9.99 µM) in test [3]. In test [2], the IC50 was found to be 1.4 nM.
As for `CC(C)Oc1ncccc1-c1cc(=O)n(CCC(C)(C(=O)NO)S(C)(=O)=O)cc1F` (centres unmarked) [Example 104, 4-(5′-fluoro-2-isopropoxy-2′-oxo-3,4′-bipyridin-1′(2′H)-yl)-N-hydroxy-2-methyl-2-(methylsulfonyl)butanamide], the MIC is 32 µg/mL (≈ 72.5 µM) in test [1], 32 µg/mL (≈ 72.5 µM) in the test on PA:UC12120 and 8 µg/mL (≈ 18.1 µM) in test [3]. In addition, the IC50 in test [2] was more than 100 nM.
With `CC(CCn1cc(F)c(-c2cnc(N3CCCC3)nc2)cc1=O)(C(=O)NO)S(C)(=O)=O` (centres unmarked) [Example 106, 4-[5-fluoro-2-oxo-4-(2-pyrrolidin-1-ylpyrimidin-5-yl)pyridin-1(2H)-yl]-N-hydroxy-2-methyl-2-(methylsulfonyl)butanamide], the MIC in test [1] was more than 64 µg/mL; against PA:UC12120, 64 µg/mL (≈ 141 µM); in test [3], 32 µg/mL (≈ 70.6 µM). In test [2], the IC50 worked out at 56.8 nM.
Take `CC(CCn1cc(F)c(-c2ccc(Cl)cc2)cc1=O)(C(=O)NO)S(C)(=O)=O` (centres unmarked) [Example 107, 4-[4-(4-chlorophenyl)-5-fluoro-2-oxopyridin-1(2H)-yl]-N-hydroxy-2-methyl-2-(methylsulfonyl)butanamide]: the MIC is more than 64 µg/mL in test [1], 0.25 µg/mL (≈ 0.6 µM) against PA:UC12120 and 1 µg/mL (≈ 2.4 µM) in test [3]. Besides, in test [2], the IC50 was found to be 1 nM.
In the case of `CC(CCn1cc(F)c(-c2ccc3c(c2)CNC3=O)cc1=O)(C(=O)NO)S(C)(=O)=O` (centres unmarked) [Example 108, 4-[5-fluoro-2-oxo-4-(1-oxo-2,3-dihydro-1H-isoindol-5-yl)pyridin-1(2H)-yl]-N-hydroxy-2-methyl-2-(methylsulfonyl)butanamide], the minimum inhibitory concentration (MIC) (in test [1]; against PA:UC12120; in test [3]) was more than 64 µg/mL in each case. Further, the IC50 in test [2] is 7.2 nM.
In the case of `CC(CCn1cc(F)c(-c2ccc(Cl)c(O)c2)cc1=O)(C(=O)NO)S(C)(=O)=O` (centres unmarked) [Example 109, 4-[4-(4-chloro-3-hydroxyphenyl)-5-fluoro-2-oxopyridin-1(2H)-yl]-N-hydroxy-2-methyl-2-(methylsulfonyl)butanamide], the MIC is more than 64 µg/mL in test [1], 32 µg/mL (≈ 73.9 µM) with PA:UC12120 and 32 µg/mL (≈ 73.9 µM) in test [3]. Further, the IC50 in test [2] is 7.3 nM.
For the molecule `COCc1ccccc1-c1cc(=O)n(CCC(C)(C(=O)NO)S(C)(=O)=O)cc1F` (centres unmarked) [Example 110, 4-{5-fluoro-4-[2-(methoxymethyl)phenyl]-2-oxopyridin-1(2H)-yl}-N-hydroxy-2-methyl-2-(methylsulfonyl)butanamide], the MIC (in test [1]; against PA:UC12120; in test [3]) was more than 64 µg/mL throughout. Moreover, the half-inhibitory concentration (IC50) in test [2] was more than 100 nM.
On to `COc1cc(C)cc(-c2cc(=O)n(CCC(C)(C(=O)NO)S(C)(=O)=O)cc2F)c1F` (centres unmarked) [Example 111, 4-[5-fluoro-4-(2-fluoro-3-methoxy-5-methylphenyl)-2-oxopyridin-1(2H)-yl]-N-hydroxy-2-methyl-2-(methylsulfonyl)butanamide], for which the figures for the MIC (in test [1]; against PA:UC12120; in test [3]) were more than 64 µg/mL, 4 µg/mL (≈ 9 µM) and 4 µg/mL (≈ 9 µM), respectively. Also, the IC50 in test [2] was determined as 3 nM.
As to `CCOc1cccc(-c2cc(=O)n(CCC(C)(C(=O)NO)S(C)(=O)=O)cc2F)c1` (centres unmarked) [Example 112, 4-[4-(3-ethoxyphenyl)-5-fluoro-2-oxopyridin-1(2H)-yl]-N-hydroxy-2-methyl-2-(methylsulfonyl)butanamide], the values for the MIC (in test [1]; in the test on PA:UC12120; in test [3]) were more than 64 µg/mL, 4 µg/mL (≈ 9.38 µM) and 2 µg/mL (≈ 4.69 µM), respectively. For the same molecule, the half-maximal inhibitory concentration (IC50) in test [2] turned out to be 3.1 nM.
Take `CC(CCn1cc(F)c(-c2ccc(C(F)(F)F)nc2)cc1=O)(C(=O)NO)S(C)(=O)=O` (centres unmarked) [Example 113, 4-[5′-fluoro-2′-oxo-6-(trifluoromethyl)-3,4′-bipyridin-1′(2′H)-yl]-N-hydroxy-2-methyl-2-(methylsulfonyl)butanamide]: the MIC in test [1] is more than 64 µg/mL; against PA:UC12120, 32 µg/mL (≈ 70.9 µM); in test [3], more than 64 µg/mL. For the same molecule, the IC50 in test [2] came out at 29.6 nM.

The record behind these values is patent publication US8624034B2, “Fluoro-pyridinone derivatives useful as antibacterial agents” (Pfizer Inc., priority 2011, dated 2014).
